Laboratory results taken from PMC12431657, “Discovery and mechanistic insights of dibenzoylmethane as a broad spectrum inhibitor of coronavirus” (PLOS Pathogens, 2025).
Values joined by “and” are separate entries in the source; they are usually repeats but may differ in a detail not shown here. Equal values may be shown once. Where a name gives a salt, the structure may show the parent alone. Read-outs that look alike come from different tables or passages of the source.

What was measured:
HCoV-OC43 [1] = test: Time-of-addition assay; type: cell-based
Procedure: To obtain further insight into the stage at which DBM inhibits the replication of HCoV-OC43 and other HCoVs, RD cells were incubated with compounds, including DBM, remdesivir (RDV), and chloroquine (CQ), at different stages of viral infection. Viral RNA from the supernatant was extracted and quantitatively analysed via qRT-PCR. […] For the viral binding assay, cells were cultured in the presence or absence of DBM at different concentrations for 1 hour before being infected with HCoV-OC43 at an MOI of 50, and then were placed on ice for 2 hours for the viral particles to bind to the membrane of the host cells, followed by washing with PBS. […] In addition to binding to receptors from host cells, the spike proteins of HCoV-OC43 could also trigger membrane fusion when HCoV-OC43 spike plasmid-transfected 293T cells were seeded together with RD cells as target cells, and the addition of DBM had no effect on this process (S5C Fig). To examine whether DBM inhibits viral internalisation, cells were inoculated with HCoV-OC43 for 1 hour on ice before being treated with either DBM or DMSO, and CQ was included to prevent endosomal acidification. Subsequently, HCoV-OC43 nucleocapsid proteins were immunostained with CoraLite Plus 488 to assess viral internalisation via confocal microscopy. […] To determine whether DBM influences viral release, we quantified viral RNA both intracellularly and in the supernatant.
To evaluate the effects of DBM on the life cycle of HCoV-229E and HCoV-OC43, fresh culture medium containing 0.6 μM DBM, 0.1 μM remdesivir (RDV), or 10 μM chloroquine (CQ) was supplemented with preseeded cells at different time points relative to infection (entry group: 0 to –2 hours; postinfection group: 2–12 hours; and full-time group: 0 to –12 hours). DMSO served as the control. At 24 hours postinfection, the number of intracellular virus RNA copies was quantified by qRT-PCR as previously described.

Huh-7 cells = test: Cytotoxicity assay (CCK-8), Huh-7 cells
RD cells = type: cell-based
HCoV-OC43 [2] = test: HCoV-OC43 replication in siRNA-transfected cells; type: cell-based; conditions: replicates
HCoV-229E [3] = test: Antiviral activity in vitro, viral RNA copies by qRT-PCR, HCoV-229E in Huh-7 cells; type: cell-based; design: EC50 (229E, Huh-7): dose-response value per replicate: scale not given here
HCoV-229E [4] = test: Antiviral activity in vitro, qRT-PCR, HCoV-229E in MRC-5 cells; type: cell-based
HCoV-OC43 [5] = test: Antiviral activity in vitro, qRT-PCR, HCoV-OC43 in RD cells; type: cell-based; design: EC50 (OC43, RD): dose-response value per replicate: concentration or dose not given beside the values
HCoV-OC43 [6] = test: Antiviral activity in vitro, qRT-PCR, HCoV-OC43 in Huh-7 cells; type: cell-based; conditions: Betacoronavirus 1, OC43, Huh-7, 24 h, read-out: EC50 HCoV-OC43 (Huh-7)
HCoV-OC43 [7] = conditions: Ingenol 3,20-dibenzoate 10 mpk oral QD; day 2; one value per mouse
HCoV-229E [8] = test: HTS luminescent cell viability assay, HCoV-229E infection; type: cell-based; conditions: for inhibition at 10 µM: Human coronavirus 229E, 24 h, read-out: 229E Inhibition rate
HCoV-OC43 [9] = test: microbe, parasite or virus in culture; type: cell-based; conditions: for inhibition at 10 µM: Betacoronavirus 1, OC43, 24 h, read-out: OC43 Inhibition rate
HCoV-229E [10] = tested on: HCoV-229E; design: species or system Huh-7; HTS, protection from HCoV-229E induced cell death, luminescent cell viability (CellCounting-Lite 2.0), inhibition rate; conditions: 24 h, 10 µM; inhibitor
HCoV-OC43 [11] = tested on: HCoV-OC43; design: species or system RD; HTS, protection from HCoV-OC43 induced cell death, luminescent cell viability (CellCounting-Lite 2.0), inhibition rate; conditions: 24 h, 10 µM; inhibitor
[12] = compound 10 μM, 24 h postinfection

CCN(CC)CCCC(C)Nc1ccnc2cc(Cl)ccc12 (stereo not shown) [CQ]
time-of-addition, viral inhibition (HCoV-OC43 [1]): 99.3

C[C@@H]1[C@H](O)[C@@H](C)/C=C/C=C/C=C/C=C/C=C/C=C/C=C/[C@H](O[C@@H]2O[C@H](C)[C@@H](O)[C@H](N)[C@@H]2O)C[C@@H]2O[C@](O)(C[C@@H](O)C[C@@H](O)[C@H](O)CC[C@@H](O)C[C@@H](O)CC(=O)O[C@H]1C)C[C@H](O)[C@H]2C(=O)O [amphotericin B, reference compound]
selectivity index (SI) (Huh-7 cells): below 25

CC(=O)OC/C1=C\[C@H]2[C@@H](OC(=O)/C=C/c3ccccc3)[C@@H](C)C[C@]2(OC(C)=O)C(=O)/C(C)=C/[C@@H]2[C@H](CC1)C2(C)C [euphorbia factor L7a]
selectivity index (SI) (Huh-7 cells): below 25

C=C(C)[C@H](CC=C(C)C)Cc1c(O)cc(O)c2c1O[C@H](c1ccc(O)cc1O)CC2=O [sophoraflavanone G]
selectivity index (SI) (Huh-7 cells): below 25

UBP1-1 (sense GCACCCACCCUUUCAGUAUTT; antisense AUACUGAAAGGGUGGGUGCTT; chemistry not given here)
Relative mRNA content of the targeted gene after siRNA knockdown (Fig5D) (RD cells): 0.42 and 0.21 and 0.33

C[S@@+]([O-])CCCCN=C=S [(R)-sulforaphane]
selectivity index (SI) (Huh-7 cells): below 25

ALG11-2 (sense GGUGCCUGUGCAAGUUGUUTT; antisense AACAACUUGCACAGGCACCTT; chemistry not given here)
Relative mRNA content of the targeted gene after siRNA knockdown (Fig5D) (RD cells): 0.16 and 0.22 and 0.13

CASP3-1 (sense CCGACAAGCUUGAAUUUAUTT; antisense AUAAAUUCAAGCUUGUCGGTT; chemistry not given here)
HCoV-OC43 replication in siRNA-transfected cells, inhibition (HCoV-OC43 [2]): -3.8 and -7.6 and -9.9 and 15.1 and 8.0 and 7.0

IDH3G-2 (sense GCACGUGAGUUCCAAUGCUTT; antisense AGCAUUGGAACUCACGUGCTT; chemistry not given here)
Relative mRNA content of the targeted gene after siRNA knockdown (Fig5D) (RD cells): 0.00

CYP1A1-2 (sense GGGUUUGACACAGUCACAATT; antisense UUGUGACUGUGUCAAACCCTT; chemistry not given here)
Relative mRNA content of the targeted gene after siRNA knockdown (Fig5D) (RD cells): 0.00

COc1ccc(-c2oc3c(CC=C(C)C)c(O)cc(O)c3c(=O)c2O[C@@H]2O[C@@H](C)[C@H](O)[C@@H](O)[C@H]2O)cc1 [baohuoside I]
selectivity index (SI) (Huh-7 cells): below 25

COC(=O)[C@H]1[C@H]2C[C@@H]3c4[nH]c5ccccc5c4CCN3C[C@H]2C[C@@H](OC(=O)c2cc(OC)c(OC)c(OC)c2)[C@@H]1OC [deserpidine, reference compound]
selectivity index (SI) (Huh-7 cells): below 25

CC1=C[C@]23C(=O)[C@@H](C=C(COC(=O)c4ccccc4)[C@@H](O)[C@]2(O)[C@H]1OC(=O)c1ccccc1)[C@H]1[C@@H](C[C@H]3C)C1(C)C [Ingenol 3,20-dibenzoate, ingenol 3,20-dibenzoate]
EC50 (HCoV-229E [3]; Human coronavirus 229E, Huh-7, 24 h, read-out: EC50 HCoV-229E (Huh-7)): < 80 nM
HCoV-229E, MRC-5: inhibition at the concentration (Fig2B) (HCoV-229E [4]): 90.2
EC50 (HCoV-229E [4]; Human coronavirus 229E, MRC5, 24 h, read-out: EC50 HCoV-229E (MRC-5)): 100 nM
EC50 (HCoV-OC43 [5]; Betacoronavirus 1, OC43, RD, 24 h, read-out: EC50 HCoV-OC43 (RD)): < 80 nM
EC50 (HCoV-OC43 [6]): < 80 nM
Body weight changes (HCoV-OC43 [7]): DIED

IDH3G-1 (sense GCAAGAGUAUCGCCAAUAATT; antisense UUAUUGGCGAUACUCUUGCTT; chemistry not given here)
Relative mRNA content of the targeted gene after siRNA knockdown (Fig5D) (RD cells): 0.00

O=C(O)c1cc(C(=O)O)c2c(n1)C(=O)C(=O)c1cc(C(=O)O)[nH]c1-2 [Pyrroloquinoline quinone]
inhibition at 10 µM (HCoV-229E [8]): 4.2%
inhibition at 10 µM (HCoV-OC43 [9]): -0.2%

CASP7-2 (sense GAGGAUUCAGCAAAUGAAGTT; antisense CUUCAUUUGCUGAAUCCUCTT; chemistry not given here)
Relative mRNA content following siRNA knockdown (RD cells): 0.04124 and 0.03671 and 0.03839 and 0.05589 and 0.05554 and 0.05883
HCoV-OC43 replication in siRNA-transfected cells, inhibition (HCoV-OC43 [2]): -52.2 and -54.8 and -44.2 and 4.9 and 14.1

COC[C@@H]1CCCN1S(=O)(=O)c1ccc2c(c1)C(=O)C(=O)N2 [caspase-3/7 inhibitor I, (S)-(+)-5-[1-(2-methoxymethylpyrrolidinyl)sulfonyl]isatin, reference compound]
suppression of viral replication (HCoV-OC43 [5]; HCoV-OC43, cell line not printed (S6C Fig)): not effective

C=C(C)C(CC=C(C)C)Cc1c(O)cc(OC)c2c1O[C@H](c1ccc(O)cc1OC)CC2=O (stereo partly drawn) [(2S)-2’-methoxykurarinone]
selectivity index (SI) (Huh-7 cells; CC50 versus EC50, HCoV-229E in Huh-7 and HCoV-OC43 in RD cells): below 25

CN[C@@H](C)[C@H]1[C@H](O)C[C@@]2(C)[C@@H]3CC[C@H]4C(C)(C)[C@@H](NC)CC[C@@]45C[C@@]35CC[C@]12C [cyclovirobuxine D]
EC50 (229E, Huh-7): dose-response value per replicate (HCoV-229E [3]): 87.1 and 91.6 and 92.1 and 83.4 and 77.4 and 88.7 and 0.1 (10×) and 27 and 13.3
EC50 (OC43, RD): dose-response value per replicate (HCoV-OC43 [5]): 99.7 (3×) and 96.3 and 96.5 and 96.2 and 73.1 and 73 (2×) and 5.5 and 61.2 and 59.8 and 79.4 and 78.3 and 79.9 and 42.6 and 41.4 and 42
selectivity index (SI) (Huh-7 cells): below 25

ELAC2-2 (sense GCAGAGGGAUGCCAUUAUUTT; antisense AAUAAUGGCAUCCCUCUGCTT; chemistry not given here)
Relative mRNA content of the targeted gene after siRNA knockdown (Fig5D) (RD cells): 0.20 and 0.16 and 0.32

CC[C@@]1(O)C(=O)OCc2c1cc1n(c2=O)Cc2cc3c(N)cccc3nc2-1 [9-amino-CPT]
OC43 Inhibition rate (HCoV-OC43 [9]; [12]): -9.5%

C=C1C(=O)[C@@]23[C@@H]4OC5O[C@@]2(O)[C@@H](O)[C@@H]2C(C)(C)CC[C@@H](O)[C@]52[C@@H]3CC[C@@H]14 [ponicidin]
selectivity index (SI) (Huh-7 cells): below 25

CASP3-2 (sense CCCUGGACAACAGUUAUAATT; antisense UUAUAACUGUUGUCCAGGGTT; chemistry not given here)
Relative mRNA content following siRNA knockdown (RD cells): 0.000229 and 0.000196 and 0.000194 and 0.000282 and 0.000327 and 0.000307
HCoV-OC43 replication in siRNA-transfected cells, inhibition (HCoV-OC43 [2]): 3.7 and -8.9 and -0.3 and 15.3 and 18.4 and 14.9

O=C(O)c1cc(C(=O)O)c2c(n1)C(=O)C(=O)c1cc(C(=O)O)[nH]c1-2 [Pyrroloquinoline quinone (disodium salt)]
229E Inhibition rate (HCoV-229E [8]; [12]): 4.0%
OC43 Inhibition rate (HCoV-OC43 [9]; [12]): -0.3%

CASP7-1 (sense GUGCCAAGAUGCAAGAUCUTT; antisense AGAUCUUGCAUCUUGGCACTT; chemistry not given here)
Relative mRNA content following siRNA knockdown (RD cells): 0.04453 and 0.02767 and 0.03038 and 0.03195 and 0.02491 and 0.0301
HCoV-OC43 replication in siRNA-transfected cells, inhibition (HCoV-OC43 [2]): -1.2 and -4.0 and -5.1 and 6.9 and -3.2 and 8.5

CO[C@@H]1C[C@@H](C[C@H]2CC[C@H](C)[C@H]([C@@H](C)C(=O)O)O2)O[C@]2(O[C@](C)([C@H]3CC[C@@](C)([C@@H]4O[C@@H]([C@H]5O[C@@](O)(CO)[C@H](C)C[C@@H]5C)C[C@@H]4C)O3)C[C@H]2C)[C@@H]1C [Nigericin (sodium salt)]
229E Inhibition rate (HCoV-229E [8]; 10 µM): 0.0%
OC43 Inhibition rate (HCoV-OC43 [9]; 10 µM): 8.7%

Nc1ncnc2c1ccn2[C@@H]1O[C@H](CO)[C@@H](O)[C@H]1O [Tubercidin]
inhibition at 10 µM (HCoV-229E [8]): 12.9%
inhibition at 10 µM (HCoV-OC43 [9]): 1.9%

C[C@H]1CCC[C@@H](O)CCC/C=C/c2cc(O)cc(O)c2C(=O)O1 [β-Zearalenol]
229E Inhibition rate (HCoV-229E [10]): 60.6
OC43 Inhibition rate (HCoV-OC43 [11]): 39.8
